Experiments:
rat nNOS = rat nNOS (Rattus norvegicus, UniProt P29476); test: hemoglobin capture assay, purified rat nNOS; format: biochemical; settings: relative to 21
[1] = mice; background statement on previous lead; cited from earlier work

Cl.Cl.Nc1ccc2ccc(COc3cccnc3)cc2n1 [Compound 11, 7-[(Pyridin-3-yloxy)methyl]quinolin-2-amine Dihydrochloride]
fold weaker binding to nNOS than 21 (rat nNOS): ~17 fold

Cl.Cl.Nc1ccc2ccc(CCNCCc3cccc(F)c3)cc2n1 [Compound 1]
oral bioavailability and brain permeation [1]: good oral bioavailability and brain permeation

— paper PMC4644118 (Journal of medicinal chemistry, 2015)
